Reference: article PMC4740378, “Export of malaria proteins requires co-translational processing of the PEXEL motif independent of phosphatidylinositol-3-phosphate binding” (Nature Communications, 2016)

Molecular target: T1, p40PX (GST-p40PX, aa 1-148) (Homo sapiens, UniProt Q15080)
T1 construct: gene NCF4; PX domain, residues 1-148, N-terminal GST fusion (pGEX; glutathione-purified, detected with anti-GST), E. coli
T1 sequence (Q15080 1-148): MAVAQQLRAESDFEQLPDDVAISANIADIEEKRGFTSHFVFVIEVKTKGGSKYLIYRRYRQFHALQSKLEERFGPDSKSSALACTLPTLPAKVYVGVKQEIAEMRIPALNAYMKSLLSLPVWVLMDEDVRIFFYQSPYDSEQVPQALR
Assay: SPR, Biacore […], L1 chip with liposomes
Assay type: binding
Details: PC:PE:PI(3)P 75:20:5 liposomes, PC/PE control subtracted; 150 mM NaCl, 50 mM HEPES pH 7.5, 25 °C; own-purified protein

Kd: 195 nM
Structure (SMILES): CCCCCCCCCCCCCCCC(=O)OC[C@H](COP(=O)(O)O[C@@H]1[C@H](O)[C@H](OP(=O)(O)O)[C@@H](O)[C@H](O)[C@H]1O)OC(=O)CCCCCCCCCCCCCCC [PI(3)P-diC16, D-myo-phosphatidylinositol 3-phosphate di-C16]
